According to ChEMBL document CHEMBL6103654, “Design, Biological Characterization, and Discovery of Capromorelin Derivatives as Oral Growth Hormone Secretagogue Receptor Type 1a Agonist for the Treatment of Growth Hormone Deficiency” (J Med Chem, 2025):
Active and inactive are the calls of the source. The rule behind the calls is not given here.

Tests used:
[1] = Plasma protein binding in rat assessed as unbound fraction measured after 6 hrs by dialysis method; type: ADME, cell-free
[2] = Metabolic stability in dog liver microsome assessed as hepatic clearance at 1 uM measured upto 60 mins in presence of NADPH by LC-MS/MS analysis; type: ADME, Canis lupus familiaris; conditions: liver microsomes, read-out: CLH
[3] = Half life in male mouse at 1 mg/kg, iv administered as single dose measured after 4 hrs; type: ADME, organism-based; conditions: in vivo
[4] = Half life in male monkey at 0.5 mg/kg, iv administered as single dose measured after 4 hrs; type: ADME, organism-based, Macaca mulatta; conditions: rhesus monkey, in vivo
Rattus norvegicus [5] = test: Induction of growth hormone level in Juvenile Sprague-Dawley rat blood at 0.2 mg/kg, po administered as single dose measured immediately by ELISA method (reference value: 28.5+/-8.7 ng/mL); type: functional
Rattus norvegicus [6] = test: Induction of growth hormone level in Juvenile Sprague-Dawley rat blood at 0.1 mg/kg, po administered as single dose measured after 10 mins by ELISA method (reference value: 23.2+/-5.6 ng/mL); type: functional
[7] = Metabolic stability in human liver microsome assessed as half life at 1 uM measured upto 60 mins in presence of NADPH by LC-MS/MS analysis; type: ADME; conditions: liver microsomes
[8] = Clearance in male mouse plasma at 1 mg/kg, iv administered as single dose measured after 4 hrs; type: ADME, organism-based
Rattus norvegicus [9] = test: Induction of growth hormone level in adult Sprague-Dawley rat blood at 0.1 mg/kg, po administered as single dose measured after 10 mins by ELISA method (reference value: 13.7+/-7.2 ng/mL); type: functional
Cytochrome P450 2C19 = Cytochrome P450 2C19 (Homo sapiens, UniProt P33261); test: Inhibition of CYP2C19 in human liver microsome incubated for 5 min in presence of NADPH by UPLC-MS/MS analysis; type: ADME, microsomes
Rattus norvegicus [10] = test: Induction of growth hormone level in 6 week-old female Sprague-Dawley rat assessed as increase in body length at 2.5 mg/kg, po measured after 10 days; type: functional, organism-based; conditions: time 10.0 day
Rattus norvegicus [11] = test: Induction of growth hormone level in adult Sprague-Dawley rat blood at 0.2 mg/kg, po administered as single dose measured immediately by ELISA method (reference value: 12.6+/-4.4 ng/mL); type: functional
Rattus norvegicus [12] = organism: Rattus norvegicus; test: Induction of growth hormone level in 6 week-old Sprague-Dawley rat assessed as increase in body length measured after 10 days; type: functional, organism-based; conditions: time 10.0 day
[13] = Agonist activity at dog GHSR expressed in CHO cells incubated for 60 min by FLIPR assay; type: cell-based; conditions: 1 h
[14] = Cmax in male dog at 2 mg/kg, po administered as single dose measured after 4 hrs; type: ADME, organism-based, Canis lupus familiaris; conditions: in vivo
[15] = AUC in male mouse at 2 mg/kg, po administered as single dose measured after 4 hrs; type: ADME, organism-based; conditions: in vivo
[16] = Elimination half life in male Sprague-Dawley rat at 2 mg/kg, po administered as single dose measured after 4 hrs; type: ADME, organism-based; conditions: in vivo, read-out: beta t1/2 (converted)
[17] = Toxicity in Sprague-Dawley rat liver assessed as change in central veins at 10 to 100 mg/kg, po administered once daily for 14 days; type: organism-based; conditions: in vivo, 336 h, dose 10-100 mg/kg, time 14 day
Rattus norvegicus [18] = test: Induction of growth hormone level in adult Sprague-Dawley rat blood at 0.1 mg/kg, po administered as single dose measured after 20 mins by ELISA method (reference value: 4.9+/-1.1 ng/mL); type: functional
[19] = Half life in male mouse at 2 mg/kg, po administered as single dose measured after 4 hrs; type: ADME, organism-based; conditions: in vivo
[20] = Half life in male monkey at 2 mg/kg, po administered as single dose measured after 4 hrs; type: ADME, organism-based, Macaca mulatta; conditions: rhesus monkey, in vivo
Rattus norvegicus [21] = test: Induction of growth hormone level in Juvenile Sprague-Dawley rat blood at 0.5 mg/kg, po administered as single dose measured after 1 hr by ELISA method (reference value: 45.2+/-12.5 ng/mL); type: functional
Cytochrome P450 1A2 = molecular target: T1, Cytochrome P450 1A2 (Homo sapiens, UniProt P05177); test: Inhibition of CYP1A2 in human liver microsome incubated for 5 min in presence of NADPH by UPLC-MS/MS analysis; type: ADME, microsomes
T1 sequence (P05177 whole entry): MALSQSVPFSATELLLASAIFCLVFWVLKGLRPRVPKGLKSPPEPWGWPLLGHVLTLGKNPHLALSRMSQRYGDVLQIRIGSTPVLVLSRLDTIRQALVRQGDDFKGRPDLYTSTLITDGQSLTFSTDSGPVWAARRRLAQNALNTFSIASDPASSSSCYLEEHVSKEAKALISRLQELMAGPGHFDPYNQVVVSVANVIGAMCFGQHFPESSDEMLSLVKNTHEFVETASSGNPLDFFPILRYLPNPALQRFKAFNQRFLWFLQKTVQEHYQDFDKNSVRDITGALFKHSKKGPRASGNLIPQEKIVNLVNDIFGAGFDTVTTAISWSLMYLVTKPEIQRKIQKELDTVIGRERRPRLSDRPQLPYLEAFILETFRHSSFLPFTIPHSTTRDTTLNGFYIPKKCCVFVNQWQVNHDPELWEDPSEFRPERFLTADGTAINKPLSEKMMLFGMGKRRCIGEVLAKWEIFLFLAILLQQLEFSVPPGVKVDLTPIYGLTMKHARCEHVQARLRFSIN

[22] = Oral bioavailability in male dog at 2 mg/kg administered as single dose measured after 4 hrs; type: ADME, organism-based, Canis lupus familiaris; conditions: in vivo
[23] = Plasma protein binding in monkey assessed as unbound fraction measured after 6 hrs by dialysis method; type: ADME, cell-free, Macaca mulatta; conditions: rhesus monkey
[24] = Metabolic stability in mouse liver microsome assessed as intrinsic clearance at 1 uM measured upto 60 mins in presence of NADPH by LC-MS/MS analysis; type: ADME; conditions: liver microsomes, read-out: CLH
Rattus norvegicus [25] = test: Induction of growth hormone level in adult Sprague-Dawley rat blood by measuring AUC(0 to 40 mins) at 0.2 mg/kg, po administered as single dose by ELISA method (reference value: 7.0+/-1.7 ng/mL); type: functional, organism-based
[26] = Plasma protein binding in human assessed as unbound fraction measured after 6 hrs by dialysis method; type: ADME, cell-free
Rattus norvegicus [27] = test: Induction of growth hormone level in Juvenile Sprague-Dawley rat blood at 0.2 mg/kg, po administered as single dose measured after 40 mins by ELISA method (reference value: 40.1+/-11.0 ng/mL); type: functional
[28] = Clearance in male Sprague-Dawley rat plasma at 1 mg/kg, iv administered as single dose measured after 4 hrs; type: ADME, organism-based
Rattus norvegicus [29] = test: Induction of growth hormone level in Juvenile Sprague-Dawley rat blood at 0.2 mg/kg, po administered as single dose measured after 20 mins by ELISA method (reference value: 29.1+/-8.6 ng/mL); type: functional

Sequence of Cytochrome P450 2C19 (P33261 whole entry): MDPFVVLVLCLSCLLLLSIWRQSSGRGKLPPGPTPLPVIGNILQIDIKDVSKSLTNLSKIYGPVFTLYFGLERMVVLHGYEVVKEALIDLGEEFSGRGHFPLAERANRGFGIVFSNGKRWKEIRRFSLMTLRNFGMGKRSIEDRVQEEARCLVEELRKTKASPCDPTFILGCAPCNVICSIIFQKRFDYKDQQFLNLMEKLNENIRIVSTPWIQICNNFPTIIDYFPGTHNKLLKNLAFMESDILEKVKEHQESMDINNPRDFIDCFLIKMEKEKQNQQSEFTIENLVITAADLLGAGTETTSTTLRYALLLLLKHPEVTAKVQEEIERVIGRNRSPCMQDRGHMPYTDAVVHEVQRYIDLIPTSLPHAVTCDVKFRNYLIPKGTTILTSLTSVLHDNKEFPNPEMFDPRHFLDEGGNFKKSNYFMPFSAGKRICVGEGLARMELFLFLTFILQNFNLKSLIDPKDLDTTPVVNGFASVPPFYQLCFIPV

With `CC(C)(N)C(=O)N[C@H](COCc1ccccc1)C(=O)N1CCC2=NN(C3CC3)C(=O)[C@]2(Cc2ccccc2)C1` the fraction unbound at 6 h [1] was 0.673, the CLint scaled at 1 µM [2] was 237 mL/min/kg and the half-life [3] was 16.2 min. For the same compound, the half-life [4] was 46.8 min, the Activity (Rattus norvegicus [5]) was 33.4 ng/mL and the Activity (Rattus norvegicus [6]) was 168.5 ng/mL. It also gave a half-life at 1 µM [7] of 11.3 min, a clearance [8] of 124 mL/min/kg and an Activity (Rattus norvegicus [9]) of 216.1 ng/mL. For the same compound, the IC50 (Cytochrome P450 2C19) was over 30 µM, the Activity (Rattus norvegicus [10]) was “Active” and the Activity (Rattus norvegicus [11]) was 22 ng/mL. The Activity (Rattus norvegicus [12]) was “Dose-dependent-effect”, the EC50 [13] was 0.043 nM and the Cmax [14] was 200 ng/mL. For the same compound, the AUC at 4 h [15] was 93.1 ng·h/mL, the half-life [16] was 166 min and the Activity [17] was “Non-toxic”. The Activity (Rattus norvegicus [18]) was 74.5 ng/mL, the half-life [19] was 91.2 min and the half-life [20] was 61.2 min. For the same compound, the Activity (Rattus norvegicus [21]) was 27.2 ng/mL, the IC50 (Cytochrome P450 1A2) was over 30 µM and the bioavailability [22] was 43.6%. For the same compound, the fraction unbound at 6 h [23] was 0.46, the microsomal CLint at 1 µM [24] was 330 µL/min/mg and the AUC (Rattus norvegicus [25]) was 62.6 ng·h/mL. For the same compound, the fraction unbound at 6 h [26] was 0.695, the Activity (Rattus norvegicus [27]) was 66.5 ng/mL and the clearance [28] was 28.9 mL/min/kg. It also gave an Activity (Rattus norvegicus [29]) of 217.8 ng/mL.
